Results taken from patent US8617562B2, “FOXM1 peptides and immunogenic compositions containing them” (OncoTherapy Science, Inc., priority 2009, dated 2013).
Entries after “also recorded” stand apart in the source; their conditions may differ. Square brackets hold non-standard residues; d marks the D form. Ends that are not written are not given here.

Columns and labels:
[1] = tested on: peptide-pulsed TISI cells; assay: IFN-gamma ELISPOT assay on CTLs induced with FOXM1 peptides; assay type: cell-based, human; details: target cells pulsed with the peptide vs not pulsed, day 21 after 3rd stimulation
From the text: Monocyte-derived dendritic cells (DCs) were used as antigen-presenting cells to induce cytotoxic T lymphocyte (CTL) responses against peptides presented on human leukocyte antigen (HLA). DCs were generated in vitro as described elsewhere (Nakahara S et al., Cancer Res 2003 Jul. 15, 63(14): 4112-8). Specifically, peripheral blood mononuclear cells (PBMCs) isolated from a normal volunteer (HLA-A*2402 positive) by Ficoll-Plaque (Pharmacia) solution were separated by adherence to a plastic tissue culture dish (Becton Dickinson) so as to enrich them as the monocyte fraction. The monocyte-enriched population was cultured in the presence of 1000 U/ml of granulocyte-macrophage colony-stimulating factor (R&D System) and 1000 U/ml of interleukin (IL)-4 (R&D System) in AIM-V Medium (Invitrogen) containing 2% heat-inactivated autologous serum (AS). After 7 days of culture, the cytokine-induced DCs were pulsed with 20 micro-g/ml of each of the synthesized peptides in the presence of 3 micro-g/ml of beta2-microglobulin for 3 hrs at 37 degrees C. in AIM-V Medium. The generated cells appeared to express DC-associated molecules, such as CD80, CD83, CD86 and HLA class II, on their cell surfaces (data not shown). These peptide-pulsed DCs were then inactivated by X-irradiation (20 Gy) and mixed at a 1:20 ratio with autologous CD8+ T cells, obtained by positive selection with CD8 Positive Isolation Kit (Dynal). These cultures were set up in 48-well plates (Corning); each well contained 1.5×10^4 peptide-pulsed DCs, 3×10^5 CD8+ T cells and 10 ng/ml of IL-7 (R&D System) in 0.5 ml of AIM-V/2% AS medium. Three days later, these cultures were supplemented with IL-2 (CHIRON) to a final concentration of 20 IU/ml. On days 7 and 14, the T cells were further stimulated with the autologous peptide-pulsed DCs. The DCs were prepared each time by the same way described above. CTLs were tested against peptide-pulsed TISI cells after the 3rd round of peptide stimulation on day 21 (Tanaka H et al., Br J Cancer 2001 Jan. 5, 84(1): 94-9; Umano Y et al., Br J Cancer 2001 Apr. 20, 84(8): 1052-7; Uchida N et al., Clin Cancer Res 2004 Dec. 15, 10(24): 8577-86; Watanabe T et al., Cancer Sci 2005 August, 96(8): 498-506; Suda T et al., Cancer Sci 2006 May, 97(5): 411-9).
(§1) Specifically, peptide-pulsed TISI (1×10^4 cells/well) was prepared as stimulator cells. Cultured cells in 48 wells were used as responder cells. IFN-gamma ELISPOT assay and IFN-gamma ELISA assay were performed under manufacture procedure.
CTLs for those peptides derived from FOXM1 were generated according to the protocols as described in “Materials and Methods”.

[2] = tested on: peptide-pulsed TISI cells; assay: IFN-gamma ELISA assay of CTL clones established by limiting dilution; assay type: cell-based, human; details: peptide-pulsed target cells vs not pulsed
Method: The dilutions were made to have 0.3, 1, and 3 CTLs/well in 96 round-bottomed micro titer plate (Nalge Nunc International). CTLs were cultured with 1×10^4 cells/well of 2 kinds of human B-lymphoblastoid cell lines, 30 ng/ml of anti-CD3 antibody, and 125 U/ml of IL-2 in a total of […] of AIM-V Medium containing 5% AS. 50 micro-1/well of IL-2 were added to the medium 10 days later so to reach a final concentration of 125 U/ml IL-2. CTL activity was tested on the 14th day, and CTL clones were expanded using the same method as described above (Uchida N et al., Clin Cancer Res 2004 Dec. 15, 10(24): 8577-86; Suda T et al., Cancer Sci 2006 May, 97(5): 411-9; Watanabe T et al., Cancer Sci 2005 August, 96(8): 498-506).
as §1
(§2) CTL activity of those CTL lines was determined by IFN-gamma ELISA assay (FIGS. 2a-d). […] Furthermore, CTL clones were established by limiting dilution from the CTL lines, and IFN-gamma production from CTL clones against target cells pulsed peptide was determined by IFN-gamma ELISA assay.

[3] = tested on: COS7 cells transfected with FOXM1 and HLA-A*2402; assay: Specific CTL activity against target cells exogenously expressing FOXM1 and HLA-A*2402; assay type: cell-based, African green monkey
From the text: The cDNA encoding an open reading frame of target genes or HLA-A*2402 was amplified by PCR. The PCR-amplified products were cloned into pCAGGS vector. The plasmids were transfected into COST, which is the target genes and HLA-A24 negative cell line, using lipofectamine 2000 (Invitrogen) according to the manufacturer's recommended procedures. After 2 days from transfection, the transfected cells were harvested with versene (Invitrogen) and used as the target cells (5×10^4 cells/well) for CTL activity assay.
The established CTL lines and clones raised against these peptides were examined for their ability to recognize target cells that endogenously express FOXM1 and HLA-A*2402 gene. […] COS7 cells transfected with either full length of FOXM1 genes or HLA-A*2402 were prepared as controls.

[4] = tested on: peptide-pulsed TISI cells; assay: IFN-gamma ELISA assay of CTL lines stimulated with FOXM1 peptides; assay type: cell-based, human; details: target cells pulsed with corresponding peptide vs without peptide pulse
Method: CTLs were expanded in culture using the method similar to the one described by Riddell et al. (Walter E A et al., N Engl J Med 1995 Oct. 19, 333(16): 1038-44; Riddell S R et al., Nat Med 1996 February, 2(2): 216-23). A total of 5×10^4 CTLs were suspended in 25 ml of AIM-V/5% AS medium with 2 kinds of human B-lymphoblastoid cell lines, inactivated by Mitomycin C, in the presence of 40 ng/ml of anti-CD3 monoclonal antibody (Pharmingen). One day after initiating the cultures, 120 IU/ml of IL-2 were added to the cultures. The cultures were fed with fresh AIM-V/5% AS medium containing 30 IU/ml of IL-2 on days 5, 8 and 11 (Tanaka H et al., Br J Cancer 2001 Jan. 5, 84(1): 94-9; Umano Y et al., Br J Cancer 2001 Apr. 20, 84(8): 1052-7; Uchida N et al., Clin Cancer Res 2004 Dec. 15, 10(24): 8577-86; Watanabe T et al., Cancer Sci 2005 August, 96(8): 498-506; Suda T et al., Cancer Sci 2006 May, 97(5): 411-9).
as §1, §2

Substance	IFN-gamma production of peptide-induced CTLs compared with the control [1]	IFN-gamma production of CTL lines compared with the control [4]	other results
IYTWIEDHF [SEQ ID NO: 2]	potent IFN-gamma production	potent IFN-gamma production	IFN-gamma production of CTL clones compared with the control ([2]; listed as FOXM1-A24-9-262): potent IFN-gamma production; specific CTL activity against COS7 cells transfected with both FOXM1 and HLA-A*2402 ([3]; CTLs raised by the peptide as effector cells, listed as FOXM1-A24-9-262): potent CTL activity; also recorded: specific CTL activity; specific CTL activity against control COS7 cells expressing either HLA-A*2402 or FOXM1 ([3]; controls transfected with only one gene): no significant specific CTL activity
KFPAGIKII [SEQ ID NO: 8]	potent IFN-gamma production		
LTLDqVFKPL (LTLD[code q]VFKPL) [SEQ ID NO: 25]	potent IFN-gamma production	potent IFN-gamma production	
PYSYmAMIQF (PYSY[code m]AMIQF) [SEQ ID NO: 31]	potent IFN-gamma production	potent IFN-gamma production	IFN-gamma production of CTL clones compared with the control ([2]; listed as FOXM1-A24-10-238): potent IFN-gamma production
RNMTIKTEL [SEQ ID NO: 7]	potent IFN-gamma production		
RYLTLDQVF [SEQ ID NO: 1]			IFN-gamma production of peptide-induced CTLs compared with the control ([1]; listed as FOXM1-A24-9-316): not shown specific IFN-gamma production; also recorded: typical negative data of CTL response
SYMAmIQFAI (SYMA[code m]IQFAI) [SEQ ID NO: 16]	potent IFN-gamma production	potent IFN-gamma production	IFN-gamma production of CTL clones compared with the control ([2]; listed as FOXM1-A24-10-240): potent IFN-gamma production
VLQPsVKVPL (VLQP[code s]VKVPL) [SEQ ID NO: 30]	potent IFN-gamma production		
